US20210283110A1, “COMPOUND FOR USE IN THE TREATMENT OF A DISEASE CHARACTERIZED BY DYSREGULATED MUCUS PRODUCTION AND/OR SECRETION” (UNIVERSITÄT REGENSBURG, priority 2018, published 2021)
“Also recorded” adds a separate entry of the source.

Columns and labels:
colon = experiment: Niclosamide applied in vivo (ip or gavage), then colon perfusion and PAS staining; parameters: species or system mouse; settings: for ATP-induced release of mucus: three days before perfusion, 100 μM ATP
Protocol: FIG. 18: Effect of niclosamide on intestinal mucus release. • A) Acute mucus secretion in excised wt colon activated by methacholine or ATP, respectively, and inhibition by acute perfusion with niclosamide (niclosamide; 10 μM). • B-D) Effect of intraperitoneal injection of niclosamide (20 mg/kg/day) on PAS staining (B,C) and acute mucus discharge induced by perfusion with 100 μM ATP (D). • E-G) Effect of application of niclosamide by gavage (20 mg/kg/day) on PAS staining (E,F) and acute mucus discharge induced by perfusion with 100 μM ATP (G). Mean±SEM; #significant difference when compared to -niclosamide (unpaired t-test); (n) number of perfused colons and PAS stainings analyzed, respectively. Bars indicate 50 μm.
It was examined whether niclosamide inhibits intestinal mucus secretion. To this end, niclosamide was added to the perfusate. […] Niclosamide was applied in vivo by intraperitoneal (ip) injection, or was applied orally by gavage three days before intestinal perfusion. […] TMEM16F plays a crucial role for intracellular Ca^2+ signaling. The present inventors detected reduced Ca^2+ increase upon ATP-stimulation of freshly isolated crypt cells from Vil1-Cre TMEM16F^flox/flox mice. In contrast, CCH-induced Ca^2+ rise was not affected. […] Increase in FM4-64 fluorescence in the plasma membrane is a marker for membrane exocytosis. The present inventors detected that ATP-stimulation (but not cholinergic stimulation) of HEK293 cells expressing TMEM16F induced FM4-64 fluorescence, i.e. exocytosis.

[1] = system: Calu3 airway epithelial cells; experiment: LPS-induced IL-8 release by Calu3 cells (ELISA); assay type: cell-based, human; settings: Calu3 cells exposed to LPS for 48 hrs
Protocol: Mouse models were performed according to the previous example. For investigating mucus, IL-8 release, and leukocytes, tissues were fixed using 4% paraformaldehyde (PFA), 0.2% picric acid and 3.4% sucrose in PBS and washed in methanol before embedding in paraffin. Mucus was analyzed using standard Periodic acid-Schiff (PAS) or alcian blue staining. MUC5AC was stained using anti-MUC5AC mouse antibody (1:200, Abcam, ab3649) and a secondary antibody conjugated with Alexa488 (Life Technologies, A-21206). Nuclei were stained with Hoe33342 (0.1 μg/ml PBS, Aplichem, Darmstadt, Germany). Quantikine ELISA kits (R&D systems) were used to measure secretion of the cytokine IL-8 by Calu3 cells.
Calu3 airway epithelial cells were exposed to LPS for 48 hrs and the release of the neutrophil attractor interleukin 8 (IL-8) was measured. […] Upon stimulation with the Th2 cytokine IL-13, Calu3 cells produced MUC5AC. […] Taken together, airway epithelial knockout of TMEM16A caused a defect in mucus secretion, while mucus production was retained (FIG. 16C).

TMEM16F = molecular target: T1, TMEM16F (Homo sapiens, UniProt Q4KMQ2); experiment: Whole cell currents in HEK293 cells expressing TMEM16F (patch clamp); assay type: cell-based; settings: overexpressed TMEM16F; niclosamide 1 μM
T1 construct: expressed in transfected cells; host or cells: HEK293 cells
T1 sequence (Q4KMQ2 1-910): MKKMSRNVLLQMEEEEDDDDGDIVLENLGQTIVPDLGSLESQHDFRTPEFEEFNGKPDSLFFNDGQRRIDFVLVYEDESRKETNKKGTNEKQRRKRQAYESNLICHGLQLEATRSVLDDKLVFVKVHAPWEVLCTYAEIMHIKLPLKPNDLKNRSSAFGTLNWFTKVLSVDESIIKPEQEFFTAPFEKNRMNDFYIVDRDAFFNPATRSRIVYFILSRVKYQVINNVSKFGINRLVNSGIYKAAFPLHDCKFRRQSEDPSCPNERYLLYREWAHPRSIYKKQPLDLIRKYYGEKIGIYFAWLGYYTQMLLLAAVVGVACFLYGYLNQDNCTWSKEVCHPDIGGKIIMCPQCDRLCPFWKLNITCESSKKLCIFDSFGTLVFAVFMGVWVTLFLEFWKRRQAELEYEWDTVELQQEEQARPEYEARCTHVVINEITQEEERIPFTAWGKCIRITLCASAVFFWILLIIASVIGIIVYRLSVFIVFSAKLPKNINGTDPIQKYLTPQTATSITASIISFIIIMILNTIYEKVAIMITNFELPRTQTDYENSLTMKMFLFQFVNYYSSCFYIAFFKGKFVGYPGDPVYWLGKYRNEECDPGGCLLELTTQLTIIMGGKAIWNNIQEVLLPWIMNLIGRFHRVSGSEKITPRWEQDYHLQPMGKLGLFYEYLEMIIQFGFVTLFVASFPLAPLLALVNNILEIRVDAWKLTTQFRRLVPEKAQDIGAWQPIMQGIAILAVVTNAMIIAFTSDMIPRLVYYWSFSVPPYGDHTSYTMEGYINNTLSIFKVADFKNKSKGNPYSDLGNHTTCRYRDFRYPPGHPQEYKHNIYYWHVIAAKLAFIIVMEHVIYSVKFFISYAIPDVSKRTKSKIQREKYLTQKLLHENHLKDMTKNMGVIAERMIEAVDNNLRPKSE
Protocol: FIG. 14: The TMEM16-inhibitor niflumic acid attenuates inflammatory airway disease. • A,B) OVA-sensitization induced pronounced goblet cell metaplasia as indicated by alcian blue positivity. Exposure to carbachol (CCH, 25 mg/ml, nebulizer) induced release of mucus and airway […]. Bars indicate […]. […] Mean±SEM; *significant inhibition by NFA (paired ttest). # significant difference when compared to OVA (unpaired t-test). (n) number of airways analysed or number of cells examined.
FIG. 15: Inhibition of TMEM16A and TMEM16F by niclosamide. • A) TMEM16A whole cell currents in overexpressing HEK293 cells. […]
OVA-induced allergic airway inflammation in mice caused pronounced airway goblet cell metaplasia. […] The two main TMEM16 paralogs expressed in airway epithelial and smooth muscle cells, TMEM16A and TMEM16F, were expressed in HEK293 cells and the whole cell currents upon activation by the Ca^2+ ionophore ionomycin (Iono) were measured. […]
Similar to TMEM16A, also overexpressed TMEM16F was inhibited by niclosamide (FIG. 15D). […] TMEM16A was activated by ionomycin and TMEM16A currents were measured as iodide quenching.

## O=C(Nc1ccc([N+](=O)[O-])cc1Cl)c1cc(Cl)ccc1O [niclosamide, 5-chloro-N-(2-chloro-4-nitrophenyl)-2-hydroxybenzamide]
colon; intraperitoneal injection 20 mg/kg/day
  ATP-induced release of mucus: completely inhibited
colon; ip or oral niclosamide
  mucus accumulation in goblet cells (PAS staining): did not accumulate
colon; oral by gavage 20 mg/kg/day
  ATP-induced release of mucus: completely inhibited
[1]
  IL-8 release: clearly inhibited
TMEM16F
  TMEM16F current (current/voltage relationship): inhibited; also recorded: inhibition
